# Measurements reported in US12390457B2, “Stable solutions of immunomodulatory imide compounds for parenteral use” (Starton Therapeutics, Inc., priority 2021, dated 2025).
# Read-outs that look alike come from different tables or passages of the source.
# Legend:
# [1] = Forced degradation of LLD solutions (acidic, basic, oxidative; 40° C.) by HPLC; assay type: physicochemical
# Protocol: The primary analytical method for analysis of drug substance in solution is a stability-indicating method, which identifies and quantitates various primary and degradative peaks of the API by HPLC.
# In the process of the analytical evaluation, forced degradation of the API in solution is performed to assess how identified chromatography peaks, primary and degradation/impurity are formed.
# [2] = LLD solubility in NMP and in aqueous povidone; assay type: physicochemical
# Protocol: These materials conform to a like-dissolves-like solubility. Acetonitrile was also evaluated as a polar aprotic solvent to assess solubility. Organic volatile solvents were assessed, not to include them into formulation approach for parenteral use, but to ascertain the potential solubility parameter requirements to solubilize the API.
# Further, the polymer chain of povidone has specific hydrogen bonding affinity which provides enhanced solubility and protection of the primary amine of lenalidomide, which is most susceptible to oxidation.
# Dissolution is usually complete within approximately 15 minutes for volumes of approximately 20 mL. It should be appreciated, however, that larger scale production may require longer dissolution times.
# [3] = Compatibility of lenalidomide with sodium metabisulfite antioxidant; assay type: physicochemical
# [4] = cited from earlier work
# [5] = cited from earlier work; remark: listed apart in the source
# [6] = polar aprotic solvent in combination with PVP, in presence of water
smiles,measurement,setting,value
"Nc1cccc2c1CN(C1CCC(=O)NC1=O)C2=O (stereo not drawn) [LLD, 3-(4-amino-1-3-dihydro-1-oxo-2H-isoindol-2yl)-2,6-piperidinedione]",LLD degraded,"[1]; 1% PEG400, basic hydrolysis, FIG. 13",100%
same,LLD degraded,"[1]; 1% PG, basic hydrolysis, FIG. 14",100%
same,Degradation of LLD,"[1]; 1% PVP K-12, basic hydrolysis, FIG. 15",100%
same,Total related impurities,[1]; below pH 4.5,negligible total related impurities
same,Hydrolytic degradation mitigated,[1]; [6],> 90%
same,Oxidation mitigated,[1]; [6],~100%
same,Loss of LLD,"[1]; presence of ACN, basic hydrolysis, FIG. 8",100%
same,Loss of LLD,"[1]; presence of IPA, basic hydrolysis, FIG. 7",100%
same,Saturation point of LLD in NMP,[2]; NMP,approximately 30%
same,Solubility in NMP,[2]; NMP,approximately 30 % by weight
same,solubility,"[2]; NMP (n-methyl-2-pyrrolidone), organic solvent or mixture, read-out: Solubility in NMP",~300000 µg/mL
same,Improvement of aqueous solubility by aqueous povidone solvent,[2]; aqueous povidone,2-3 fold
same,solubility,"[2]; aqueous povidone, aqueous with cosolvent or surfactant or cyclodextrin, with povidone, read-out: Aqueous solubility",≤ 800 µg/mL
same,solubility,"[2]; aqueous, without povidone, read-out: Aqueous solubility",~200 µg/mL
same,Interaction with sodium metabisulfite as an antioxidant,[3],direct interaction with lenalidomide
same,Total Related Substances by peak area,[4]; T0 upon preparation in standard solutions or formulations,> 1.5%
same,Total Related Substances,[4]; after 48 hours at ICH storage conditions,> 2.5%
same,Total Related Substances,"[4]; after 48 hours, higher pH ranges such as pH 7.0 PBS",> 10%
same,Solubility of the LLD in solution,[5],< 400 µg/mL
same,solubility,"[5]; pH about 6.0 to about 7.0, dependent on storage conditions",about 0.2 mg/mL
same,solubility,[5]; physiologically acceptable pH about 3 to about 8,no more than 0.4 mg/mL
